pIC50: −log10 of the molar value. Converted amounts (≈) assume the structure as drawn.

The values that follow come from ChEMBL document CHEMBL3603838, “Guanidinium compounds with sub-micromolar activities against Mycobacterium tuberculosis. Synthesis, characterization and biological evaluations” (Bioorg Med Chem, 2015).

The subject of data set [1] is Mycobacterium tuberculosis. Description: Antimycobacterial activity against Mycobacterium tuberculosis H37Rv after 6 days by MTT assay. Format: functional, organism-based. To be noted: 144 h. (In general: Formazan colour is commonly taken as a measure of viable cells.)
Data set [2] is described as follows: Cytotoxicity against human MRC5 cells after 24 hrs. The format is cell-based.
The nature of data set [3]: Selectivity index, ratio of CC50 for human MRC5 cells to MIC for Mycobacterium tuberculosis H37Rv. Format: toxicity, cell-based. To be noted: read-out: Selectivity Index.

For the compound `N=C(N)NCCc1ccc(OCc2ccc(COc3ccc(CCNC(=N)N)cc3)cc2)cc1.O=C(O)C(F)(F)F`, in data set [1], the pIC50 is 6.10 and the MIC came to 3.1 µM. Further, the CC50 at 24 h in data set [2] was 21 µg/mL. The selectivity ratio in data set [3] was 10.

In data set [1], `N=C(N)NCCc1ccc(OCc2ccccc2COc2ccc(CCNC(=N)N)cc2)cc1.O=C(O)C(F)(F)F` gave a pIC50 of 5.82 and an MIC of 6.2 µM. In addition, half-maximal cytotoxicity in data set [2] (CC50 at 24 h) was put at 100 µg/mL. In addition, in data set [3], the selectivity ratio came out at 24.

As for `CC[C@@H](CO)NCCN[C@@H](CC)CO` [ETHAMBUTOL], it took 9.8 µM (≈ 2 µg/mL) to inhibit growth in data set [1] (MIC). Besides, in data set [2], the CC50 at 24 h was > 10 µg/mL. In addition, in data set [3], the selectivity ratio is > 5.

In data set [1], `NNC(=O)c1ccncc1` [ISONIAZID] showed a pIC50 of 6.66 and an MIC of 0.6 µM (≈ 0.0823 µg/mL). For the same compound, the CC50 at 24 h in data set [2] was > 10 µg/mL. Moreover, the selectivity ratio in data set [3] is > 125.

Consider `CN[C@@H]1[C@H](O[C@H]2[C@H](O[C@H]3[C@H](O)[C@@H](O)[C@H](N=C(N)N)[C@@H](O)[C@@H]3N=C(N)N)O[C@@H](C)[C@]2(O)C=O)O[C@@H](CO)[C@H](O)[C@H]1O` [STREPTOMYCIN], for which it took 0.7 µM (≈ 0.407 µg/mL) to inhibit growth in data set [1] (MIC).

In data set [1], `N=C(N)NCCc1ccc(OCc2cccc(COc3ccc(CCNC(=N)N)cc3)c2)cc1.O=C(O)C(F)(F)F` had a negative-log IC50 (pIC50) of 6.15 and a minimal inhibitory concentration (MIC) of 3.1 µM. Also, the cytotoxic concentration (CC50) at 24 h in data set [2] turned out to be 34.5 µg/mL. Besides, the selectivity ratio in data set [3] turned out to be 16.

In the case of `N=C(N)NCCc1ccc(OCc2c(COc3ccc(CCNC(=N)N)cc3)c(COc3ccc(CCNC(=N)N)cc3)c(COc3ccc(CCNC(=N)N)cc3)c(COc3ccc(CCNC(=N)N)cc3)c2COc2ccc(CCNC(=N)N)cc2)cc1`, in data set [1], the negative logarithm of the IC50 (pIC50) was 5.42 and the MIC was found to be 12.5 µM (≈ 15.3 µg/mL). The cytotoxic concentration (CC50) at 24 h in data set [2] was determined as 26 µg/mL (≈ 21.2 µM). In data set [3], the selectivity ratio was determined as 1.

With `N=C(N)NCCc1ccc(OCc2ccccc2)cc1`, in data set [1], the pIC50 is 5.23 and the minimal inhibitory concentration (MIC) was found to be 25 µM (≈ 6.73 µg/mL). Further, the half-maximal cytotoxic concentration (CC50) at 24 h in data set [2] was 26 µg/mL (≈ 96.5 µM). Besides, the selectivity ratio in data set [3] worked out at 2.6.

Consider `N=C(N)NCCc1ccc(OCc2cc(COc3ccc(CCNC(=N)N)cc3)cc(COc3ccc(CCNC(=N)N)cc3)c2)cc1.O=C(O)C(F)(F)F`, for which, in data set [1], the pIC50 is 6.46 and it took 0.8 µM to inhibit growth (MIC). Besides, in data set [2], the CC50 at 24 h is 39.5 µg/mL. In data set [3], the selectivity ratio came out at 49.

For the compound `O=C(O)c1cn(C2CC2)c2cc(N3CCNCC3)c(F)cc2c1=O` [CIPROFLOXACIN], in data set [1], the pIC50 was 6.22 and the MIC was found to be 2.5 µM (≈ 0.828 µg/mL).

On to `N=C(N)NCCc1ccc(OCc2cc(COc3ccc(CCNC(=N)N)cc3)c(COc3ccc(CCNC(=N)N)cc3)cc2COc2ccc(CCNC(=N)N)cc2)cc1.O=C(O)C(F)(F)F`, for which, in data set [1], the negative logarithm of the IC50 (pIC50) is 6.30 and 3.2 µM was the least that counted as inhibitory (MIC). The compound also returned a CC50 at 24 h in data set [2] of 49 µg/mL. Also, the selectivity ratio in data set [3] was 11.5.

Regarding `N=C(N)NCCc1cc2c(O)c(c1)Cc1cc(CCNC(=N)N)cc(c1O)Cc1cc(CCNC(=N)N)cc(c1O)Cc1cc(CCNC(=N)N)cc(c1O)C2`, the MIC in data set [1] amounted to 0.8 µM (≈ 0.612 µg/mL). Also, in data set [2], the CC50 at 24 h was > 256 µg/mL. For the same compound, the selectivity ratio in data set [3] is > 256.

The pIC50 is the IC50 on a negative log10 scale, so that one unit is a factor of ten. A high value points to a low IC50. What is called MIC is the lowest concentration that inhibits growth of the organism. Read a high MIC as a need for much substance. By CC50 is commonly meant the concentration giving 50% cytotoxicity. A lower CC50 goes with harm at low concentration.
